Test results from US20080274121A1, “Inhibition of Angiogenesis by Mithramycin” (priority 2007, published 2008).

Tests used:
BON-1 cells = assay: Viable cell count in vitro, BON-1; assay type: cell-based, human; settings: 0 to 100 μg/ml BVZ, 5 days
Protocol: FIG. 18. Effects of treatment with BVZ and MIT on the growth of and gene expression in human carcinoid cells in vitro. A. H727 and BON-1 cells were incubated for 5 days in a medium alone or a medium containing 25 to 100 μg/ml BVZ. The viable cells were counted. B. H727 cells were incubated for 5 days in a medium alone or a medium containing 100 μg/ml BVZ. Total protein lysates were harvested from the cell cultures, and the level of Sp1 and VEGF protein expression was determined using Western blot analysis. Equal protein-sample loading was monitored by probing the same membrane filter with an anti-GAPDH. C. H727 and BON-1 cells were treated with MIT at concentrations ranging from 0.1 to 2.5 μM for 24 hours. Cytotoxicity was assessed using the MTT assay.
Effects of treatment with BVZ and MIT on the growth of and gene expression in human LGNET cells. To further determine whether treatment with BVZ directly impacts gene expression in LGNET cells, we incubated H727 and BON-1 cells in a medium alone or a medium containing 0 to 100 μg/ml BVZ for 5 days.

Sp1, VEGF, CD31 (MVD) = assay: Gene expression and microvessel formation in PANC-1 tumor tissues; assay type: in vivo, nude mice
Protocol: FIG. 13. Analysis of gene expression and microvessel formation in tumor tissues. The tumor tissues described in FIG. 2 were collected and processed as described in Materials and Methods. A, total protein lysates were harvested from tumor tissues, and the level of protein expression was determined using Western blot analysis. Equal protein-sample loading was monitored by probing the same membrane filter with an anti-β-actin antibody. NS, nonspecific. B, the levels of Sp1 and VEGF expression were quantitated and expressed as fold change. C, MVD was quantitated according to CD31 staining. D, immunohistochemical staining was performed using specific antibodies against Sp1, VEGF, and CD31. Representative photos of the stains are shown.
Western blot analysis. Whole-cell lysates were prepared from human pancreatic cancer cell lines and tissues (23). Standard Western blotting was performed using polyclonal rabbit antibodies against human and mouse Sp1, VEGF, and EGFR (Santa Cruz Biotechnology, Santa Cruz, Calif.) and the anti-rabbit IgG antibody, a horseradish peroxidase-linked F(ab′)2 fragment obtained from a donkey (Amersham, Arlington Heights, Ill.). Equal protein-sample loading was monitored by probing the same membrane filter with antibodies against anti-β-actin or glyceraldehyde-3-phosphate dehydrogenase (GAPDH) (23). The probe proteins were detected using the Amersham enhanced chemiluminescence system according to the manufacturer's instructions.
Immunohistochemical analysis and quantification of tumor MVD. For CD31 staining, frozen tissue sections (5 μm thick) were fixed in acetone. Endogenous peroxidase in the specimens was blocked using 3% hydrogen peroxide in phosphate-buffered saline (PBS) for 12 minutes. […] For quantification of tumor MVD, vessels on each section were counted in five high-power fields (magnification, ×200 [×20 objective and ×10 ocular]) as described previously (41). […]

bevacizumab [BVZ]
cell growth in vitro (BON-1 cells): did not affect the growth | MVD (Sp1, VEGF, CD31 (MVD); CD31 staining, low-dose BVZ or MIT alone): did not significantly reduce MVD | expression of platelet-derived growth factor, IGF-R, and EGFR in tumor tissue (Sp1, VEGF, CD31 (MVD); Western blot, data not shown): upregulated the expression of other proangiogenic molecules | Sp1 and VEGF expression in tumor tissue (Sp1, VEGF, CD31 (MVD); Western blot, mice treated with PBS, BVZ, MIT, or B+M (low doses)): increased expression of Sp1 and its downstream molecule VEGF
